Reference: patent US20110020843A1, “LABEL-FREE METHODS RELATED TO PHOSPHODIESTERASES” (priority 2009, published 2011)

Assays:
[1] = system: A549 cells; test: DMR modulation index against panel of markers in A549 cells; format: cell-based, human
Excerpt: 191. To characterize the polypharmacology including PDE4 inhibitory activity of compounds, we used the known EGFR inhibitor tyrphostin 51 as an example. Quiescent A431 and proliferating A549 cells were separately exposed to tyrphostin 51 at 10 micromolar for about 1 hr to generate its primary profiles, followed by stimulation with each marker at a fixed concentration for another 1 hr or so to generate secondary profiles of the tyrphostin 51 against the panels of markers in both types of cells. Next, one or more specific DMR parameters were chosen as a readout for plotting the DMR index of the molecule.
193. The second panel of markers was contacted with A549 cells at concentrations close to each of the marker's EC80 or EC100, and DMR measurements were obtained with and EPIC® system. This panel included poly(I:C), SLIGKV-amide, pinacidil, PMA, histamine, and forskolin. Each of these markers also leads to a wide array of cell signaling. Using Epic® cellular assays in conjunction with chemical biology and cell biology approach similar to the EGFR DMR mentioned above, we have determined the pathway(s) and network interaction(s) that is accounted for each marker-induced DMR signal in A549 cells. The main observations are summarized below. Poly(I:C) is an agonist for endogenous Toll-like receptor(s) in A549, whose activation leads to IKK pathway and AKT pathway. SLIGKV-amide is an agonist for endogenous protease activated receptor subtype 2 (PAR2) in A549, whose activation leads to Gq-, Gi- and G12/13-mediated signaling. Pinacidil is an opener for endogenous ATP-sensitive potassium (KATP) ion channel in A549, whose activation leads to Rho- and JAK-mediated signaling. PMA is an activator for protein kinase C(PKC), whose activation leads to PKC pathway and degranulation. Histamine is a natural agonist for endogenous histamine receptors (dominantly H1R, and possibly H3R), whose activation leads to dual signaling, possibly through Gq and Gi mediated signaling in A549. Forskolin is an activator for adenylyl cyclases, whose activation leads to cAMP-PKA pathway in A549. […] Each DMR signal represents an averaged response of 4 replicates.
194. For the pinacidil DMR response in A549, the amplitude of the N-DMR (i.e., the amplitude 30 min after stimulation) was chosen. For the poly(I:C) DMR response in A549, the amplitude of the late DMR (i.e., the amplitude 50 min after stimulation) was chosen. For the PMA response in A549, the late DMR amplitude (i.e., the amplitude 50 min after stimulation) was chosen. For the SLIGKV-amide DMR response in A549, the P-DMR amplitude (i.e., the amplitude 20 min after stimulation) was chosen. For the forskolin response in A549 cells, the P-DMR amplitude (i.e., the amplitude 50 min after stimulation) was chosen. For the histamine response in A549, both the early DMR amplitude (i.e., amplitude 10 min after stimulation) and the late response (i.e., the amplitude 30 min after stimulation) were chosen. For the epinephrine response in A431, the P-DMR amplitude (i.e., the amplitude 50 min after stimulation) was chosen. For the nicotinic acid DMR in A431, the P-DMR amplitude (i.e., the amplitude 3 min after stimulation) was chosen. For the EGF DMR in A431, both the P-DMR (i.e., the amplitude 4 min after stimulation) and N-DMR amplitudes (i.e., the decaying amplitude between 4 min and 40 min after simulation) were chosen. For the histamine response in A431, the P-DMR amplitude (i.e., the amplitude 3 min after stimulation) was chosen. The percentage of modulation of the marker against each marker was calculated by normalizing the secondary profile of the molecule against the marker in the cell to the primary profile of the same marker acting on the same cell.

[2] = system: quiescent A431 cells (endogenous PDE4 isoforms); test: Label-free Epic RWG biosensor DMR assay of PDE inhibitors in synchronized quiescent A431 cells; format: cell-based, human; conditions: A431; 10 micromolar; ultra-high confluent cells, 2 hrs in low CO2 (~2%) (FIG. 12A)
Procedure: Cells were typically grown using ˜1 to 2×10^4 cells per well at passage 3 to 15 suspended in 50 μl of the corresponding culture medium in the biosensor microplate, and were cultured at 37° C. under air/5% CO2 for ˜1 day. Except for A431 which was subject to ˜20 hr starvation through continuously culture in the serum-free DMEM, the other cell types were directly assayed without starvation.
Epic® wavelength interrogation system (Corning Inc., Corning, N.Y.) was used for whole cell sensing. This system consists of a temperature-control unit, an optical detection unit, and an on-board liquid handling unit with robotics. The detection unit is centered on integrated fiber optics, and enables kinetic measures of cellular responses with a time interval of ˜15 sec. The compound solutions were introduced by using the on-board liquid handling unit (i.e., pippetting).
The RWG biosensor is capable of detecting minute changes in local index of refraction near the sensor surface. Since the local index of refraction within a cell is a function of density and its distribution of biomass (e.g., proteins, molecular complexes), the biosensor exploits its evanescent wave to non-invasively detect ligand-induced dynamic mass redistribution in native cells. The evanescent wave extends into the cells and exponentially decays over distance, leading to a characteristic sensing volume of ˜150 nm, implying that any optical response mediated through the receptor activation only represents an average over the portion of the cell that the evanescent wave is sampling. The aggregation of many cellular events downstream the receptor activation determines the kinetics and amplitudes of a ligand-induced DMR.
All studies were carried out at a controlled temperature (28° C.). At least two independent sets of experiments, each with at least three replicates, were performed.
We further examined the DMR signal, if any, of the quiescent A431 cells upon treatment with PDE inhibitors. […] The quiescent A431 cells obtained under the same culture condition were used. Here the initial seeding numbers of cells were relatively low (˜20K cells per well in a 384 well Epic biosensor microplate tissue culture treated). […] After washing with the serum free medium, the cells were continuously cultured in the serum free medium for another 24 hrs to reach a quiescent state. Here the quiescent state was largely achieved through serum withdrawl. […] The cell membrane bound carbonic anahydrase is a known sensor for CO2 level.
In FIG. 4 the quiescent cells were achieved primarily through serum withdrawl. We were interested in the quiescent cells achieved through both contact inhibition and serum withdrawl. To do so, much higher initial seeding numbers of cells (>=25k cells per well for the 384 well Epic biosensor microplate) were used. […] Here both quiescent cells were subject to the same synchronization condition (2 hr incubation in the HBSS assay solution in a low CO2 environment).
Here the quiescent A431 cells were used using 22k cells per well in 384 well Epic biosensor microplates, followed by one day (˜24 hrs) culture in serum medium and 1 day (˜24 hrs) serum free medium, and sequential synchronization in the HBSS buffer solution under a relatively low CO2 environment for 2 hrs. […] For comparison, the DMR signal of cells stimulated with the buffer only (“Vehicle”) were included.

[3] = 10 micromolar pretreatment ~1 hr

## N#CC(C#N)=C(N)/C(C#N)=C/c1cc(O)c(O)c(O)c1 [tyrphostin 51]
[1]; [3]
  modulation of PMA DMR (late DMR amplitude 50 min): −6%
  modulation of SLIGKV-amide DMR (P-DMR amplitude 20 min): 0%
  modulation of forskolin DMR (P-DMR amplitude 50 min): −23%
  modulation of histamine early response (amplitude 10 min): +6%
  modulation of histamine late response (amplitude 30 min): 0%
  modulation of poly(I:C) DMR (late DMR amplitude 50 min): +5%
[1]; FIG. 12C
  effect of pretreatment on forskolin DMR signal: partially attenuated
[1]; tyrphostin 51 at 10 micromolar pretreatment ~1 hr
  modulation of pinacidil DMR (N-DMR amplitude 30 min): 0%
[2]
  primary DMR profile: closely resembled the classic Gs-DMR signals
